The text below walks through data of ChEMBL document CHEMBL1132818, “Use of bicuculline, a GABA antagonist, as a template for the development of a new class of ligands showing positive allosteric modulation of the GABA(A) receptor” (Bioorg Med Chem Lett, 2000).

Test [1] deals with T1, GABA-A receptor; anion channel (Rattus norvegicus) (UniProt O09028+P15431+P18506+P18508+P19969+P20236+P23574+P23576+P28471+P28473+P30191+P62813+P63079+P63138+Q91ZM7+Q9ES14). Description: In vitro displacement of [35S]TBPS from Gamma-aminobutyric acid A receptor of rat brain membrane preparations at 100 uM.
For test [2], the target named is T1, GABA-A receptor; anion channel (Rattus norvegicus). Kind of test: Displacement of [3H]flunitrazepam from GABA-A receptor of rat brain membrane preparations at 100 uM.
For test [3] the target is unchanged. Kind of test: In vitro displacement of [3H]muscimol from Gamma-aminobutyric acid A receptor of rat brain membrane preparations at 100 uM.
The target of test [4] is T2, GABA-A receptor; alpha-1/beta-2/gamma-2 (Rattus norvegicus) (UniProt P18508+P62813+P63138). Description: (§1) Percent GABA current elicited in Xenopus laevis oocytes expressing rat GABA-A alpha-1-beta-2-gamma-2 subunits at 100 uM [(-)inhibition, (+)stimulation]. The class given is functional, cell-based. The settings on record: Oocyte.
Test [5] addresses T1, GABA-A receptor; anion channel (Rattus norvegicus). Description: In vitro displacement of [35S]TBPS from Gamma-aminobutyric acid A receptor of rat brain membrane preparations at 10 uM.
Test [6] shares this target. Description: Displacement of [3H]flunitrazepam from GABA-A receptor of rat brain membrane preparations at 10 uM.
The target is the same in test [7]. Description: In vitro displacement of [3H]muscimol from Gamma-aminobutyric acid A receptor of rat brain membrane preparations at 10 uM.
Test [8] shares this target. The note with it: Brain, Membrane, 10 nM.
Description: Displacement of [3H]flunitrazepam from GABA-A receptor of rat brain membrane preparations at 10 nM
The target in test [9] is T2, GABA-A receptor; alpha-1/beta-2/gamma-2 (Rattus norvegicus). The settings on record: Oocyte, 1 uM.
Description: Percent GABA current elicited in Xenopus laevis oocytes expressing rat GABA-A alpha-1-beta-2-gamma-2 subunits at 1 uM [(-)inhibition, (+)stimulation]
Test [10] deals with GABA-A receptor; anion channel. Kind of test: Displacement of [3H]flunitrazepam from GABA-A receptor of rat cerebellar tissue. The class given is protein-complex assay.
Test [11] concerns the target GABA-A receptor; anion channel. Kind of test: Displacement of [3H]flunitrazepam from GABA-A receptor of rat forebrain tissue.
Test [12] has as its target T2, GABA-A receptor; alpha-1/beta-2/gamma-2 (Rattus norvegicus). Description: Percent GABA current elicited in Xenopus laevis oocytes expressing rat GABA-A alpha-1-beta-2-gamma-2 subunits at 10 uM [(-)inhibition, (+)stimulation]. It is filed as functional, cell-based. The note with it: Oocyte.
Test [13] deals with T1, GABA-A receptor; anion channel (Rattus norvegicus). Description: In vitro displacement of [3H]-muscimol from Gamma-aminobutyric acid A receptor of rat brain membrane preparations at 100 uM (Limited solubility).
For test [14] the target is unchanged. Description: Displacement of [3H]flunitrazepam from GABA-A receptor of rat brain membrane preparations at 100uM, Limited solubility.
For test [15] the target is unchanged. Description: In vitro displacement of [35S]TBPS from Gamma-aminobutyric acid A receptor of rat brain membrane preparations at 100 uM (Limited solubility).
Test [16] has as its target T2, GABA-A receptor; alpha-1/beta-2/gamma-2 (Rattus norvegicus). Kind of test: Percent GABA current elicited in Xenopus laevis oocytes expressing rat GABA-A alpha-1-beta-2-gamma-2 subunits at 50 uM [(-)inhibition, (+)stimulation]. The class given is functional, cell-based. The note with it: Oocyte.
The nature of test [17]: as §1. It is filed as functional, Oocyte.

`COc1cc2c(cc1OC)[C@@H]([C@H]1C=C(C)C(=O)O1)N(C(=O)OCc1ccccc1)CC2`: the Displacement is 63% in [1], 31% in test [2] and -23% in [3]. In test [4], the GABA current is 60%.

`COc1cc2c(cc1OC)[C@@H]([C@H]1C=CC(=O)O1)N(C(=O)OCc1ccccc1)CC2`: the Displacement turned out to be 5% in [5]; 50% in [1]; 15% in [6]; 51% in test [2]; 7% in test [7]; 10% in test [3]. Also, the GABA current in test [4] came out at 43%.

As to `CN1C(=O)CN=C(c2ccccc2)c2cc(Cl)ccc21`, the Displacement in test [5] was 25%; in test [3] it was -13%; in test [8], 33%. Also, the GABA current in [9] was determined as 300%.

As to `CC1=C[C@H]([C@@H]2c3cc4c(cc3CCN2C)OCO4)OC1=O`, the Displacement in test [5] was 1%; in test [1], 3%; in test [6], 6%; in test [2], 30%; in test [3] it was 5%. Further, the GABA current in [4] is -7%.

As for `O=C1CC[C@@H]([C@@H]2c3ccccc3CCN2C(=O)OCc2ccccc2)O1`, the Displacement in test [5] was 11%; in test [1], 82%; in test [6], 96%; in test [7], -18%; in test [3], -2%. In addition, the values for the IC50 in test [10] and in [11] were 0.06 µM and 0.16 µM, respectively. Further, the GABA current in [12] came to 111%; in test [4], 351%.

Take `COc1cc2c(cc1OC)[C@@H]([C@H]1C=C(C)C(=O)O1)N(C)CC2`: the Displacement in test [1] is 4%; in test [2], 12%; in test [3], -1%. For the same compound, the GABA current in test [4] is -10%.

Take `CN1CCc2cc3c(cc2[C@H]1[C@@H]1OC(=O)c2c1ccc1c2OCO1)OCO3`: the Displacement in test [1] was -1%; in test [2] it was 7%; in [7] it was 45%. Moreover, the GABA current in test [4] was -100%.

Take `CC1=C[C@@H]([C@@H]2c3ccccc3CCN2C(=O)OCc2ccccc2)OC1=O`: the Displacement in test [5] is 16%; in test [6] it was 43%; in [7], -7%; in test [13], “Insoluble”. Besides, the IC50 in test [10] stood at 7 µM; in test [11], 12 µM. Moreover, the GABA current in [4] came to 130%.

Regarding `O=C1C=C[C@@H]([C@@H]2c3ccccc3CCN2C(=O)OCc2ccccc2)O1`, the Displacement is 14% in test [5]; 82% in test [1]; 93% in test [6]; -12% in test [7]; -13% in test [3]. For the same compound, the GABA current in [4] was 281%.

As to `COc1cc2c(cc1OC)[C@@H]([C@@H]1C=C(C)C(=O)O1)N(C)CC2`, the Displacement was determined as 2% in test [1], 8% in [2] and 4% in test [3]. In [4], the GABA current was -8%.

With `COc1cc2c(cc1OC)[C@@H]([C@@H]1C=C(C)C(=O)O1)N(C(=O)OCc1ccccc1)CC2`, the Displacement in test [1] was 11%; in [2] it was 4%; in test [3], -1%. In addition, the GABA current in [4] came to 24%.

With `CC1=C[C@H]([C@@H]2c3ccccc3CCN2C(=O)OCc2ccccc2)OC1=O`, the Displacement is 20% in test [5]; 27% in test [6]; “Insoluble” in test [14]; -4% in test [7]; “Insoluble” in [13]. Also, the IC50 in [10] came out at 17 µM; in test [11] it was 25 µM. Moreover, the GABA current in test [4] is 208%.

`O=C1C=C[C@H]([C@@H]2c3ccccc3CCN2C(=O)OCc2ccccc2)O1`: the Displacement in test [5] is 18%; in test [1] it was 85%; in test [6] it was 51%; in test [7], -9%; in [3], -2%. Also, in test [4], the GABA current was determined as 225%.

For the compound `COc1cc2c(cc1OC)[C@@H]([C@@H]1C=CC(=O)O1)N(C(=O)OCc1ccccc1)CC2`, the Displacement in test [5] was 5%; in test [1], 47%; in test [6], 5%; in test [2] it was 15%; in test [3] it was -1%. The GABA current in [4] came to 20%.

With `O=C1C=C[C@H]([C@@H]2c3cc4c(cc3CCN2C(=O)OCc2ccccc2)OCO4)O1`, the Displacement in [5] was 18%; in [15], “Insoluble”; in [6], 27%; in test [7], -7%; in [13] it was “Insoluble”. In test [16], the GABA current was 128%.

As for `O=C1C=C[C@@H]([C@@H]2c3cc4c(cc3CCN2C(=O)OCc2ccccc2)OCO4)O1`, the Displacement was 19% in [5]; “Insoluble” in [15]; 20% in [6]; -5% in test [7]; “Insoluble” in [13]. Moreover, the GABA current in [16] amounted to 215%.

`CC1=C[C@@H]([C@@H]2c3cc4c(cc3CCN2C)OCO4)OC1=O`: the results for the Displacement in test [1], in [2] and in [3] were 3%, 21% and 3%, respectively. Besides, the GABA current in [17] is reported as -3%.
